# Experiments:
# [1] = The drug is tested on Providencia rettgeri strain: DSM1131 for biotransformation. The drug concentrations were measured before and after a 12-h incubation by liquid-chromatography-coupled mass spectrometry (LC–MS); format: ADME; design: dose 2 uM, timepoint 0 vs 12 hours; details: 2 µM
# [2] = The drug is tested on Escherichia coli strain: BW25113 for biotransformation. The drug concentrations were measured before and after a 12-h incubation by liquid-chromatography-coupled mass spectrometry (LC–MS); details: 2 µM
# [3] = The drug is tested on Bacteroides dorei strain: DSM17855 for biotransformation. The drug concentrations were measured before and after a 12-h incubation by liquid-chromatography-coupled mass spectrometry (LC–MS); details: phocaeicola dorei, 2 µM
# [4] = The drug is tested on Dorea formicigenerans strain: ATCC27755 for biotransformation. The drug concentrations were measured before and after a 12-h incubation by liquid-chromatography-coupled mass spectrometry (LC–MS); details: 2 µM
# [5] = bifidobacterium adolescentis, 12 h, 2 µM
# Description: The drug is tested on Bifidobacterium adolescentis strain: ATCC 15703 for biotransformation. The drug concentrations were measured before and after a 12-h incubation by liquid-chromatography-coupled mass spectrometry (LC–MS)
# [6] = The drug is tested on Eggerthella lenta strain: ATCC25559 for biotransformation. The drug concentrations were measured before and after a 12-h incubation by liquid-chromatography-coupled mass spectrometry (LC–MS); details: 2 µM
# [7] = The drug is tested on Clostridium asparagiforme strain: DSM15981 for biotransformation. The drug concentrations were measured before and after a 12-h incubation by liquid-chromatography-coupled mass spectrometry (LC–MS); format: ADME; design: dose 2 uM, timepoint 0 vs 12 hours; details: enterocloster asparagiformis, 2 µM
# [8] = bacteroides eggerthii, 12 h, 2 µM
# Description: The drug is tested on Bacteroides eggerthii strain: DSM20697 for biotransformation. The drug concentrations were measured before and after a 12-h incubation by liquid-chromatography-coupled mass spectrometry (LC–MS)
# [9] = The drug is tested on Ruminococcus torques strain: ATCC27756 for biotransformation. The drug concentrations were measured before and after a 12-h incubation by liquid-chromatography-coupled mass spectrometry (LC–MS); format: ADME; design: dose 2 uM, timepoint 0 vs 12 hours; details: 2 µM
# [10] = The drug is tested on Clostridium scindens strain: ATCC35704 for biotransformation. The drug concentrations were measured before and after a 12-h incubation by liquid-chromatography-coupled mass spectrometry (LC–MS); details: 2 µM
# [11] = The drug is tested on Subdoligranulum variabile strain: DSM15176 for biotransformation. The drug concentrations were measured before and after a 12-h incubation by liquid-chromatography-coupled mass spectrometry (LC–MS); details: 2 µM
# [12] = The drug is tested on Bacteroides uniformis strain: ATCC8492 for biotransformation. The drug concentrations were measured before and after a 12-h incubation by liquid-chromatography-coupled mass spectrometry (LC–MS); details: 2 µM
# [13] = The drug is tested on Bifidobacterium ruminantium strain: fecal isolate for biotransformation. The drug concentrations were measured before and after a 12-h incubation by liquid-chromatography-coupled mass spectrometry (LC–MS); details: 2 µM
# [14] = The drug is tested on Enterobacter cancerogenus strain: ATCC35316 for biotransformation. The drug concentrations were measured before and after a 12-h incubation by liquid-chromatography-coupled mass spectrometry (LC–MS); details: 2 µM
# [15] = The drug is tested on Bacteroides ovatus strain: ATCC8483 for biotransformation. The drug concentrations were measured before and after a 12-h incubation by liquid-chromatography-coupled mass spectrometry (LC–MS); details: 2 µM
# [16] = The drug is tested on Bacteroides pectinophilus strain: ATCC43243 for biotransformation. The drug concentrations were measured before and after a 12-h incubation by liquid-chromatography-coupled mass spectrometry (LC–MS); details: 2 µM
# [17] = The drug is tested on Enterococcus faecalis strain: V583 for biotransformation. The drug concentrations were measured before and after a 12-h incubation by liquid-chromatography-coupled mass spectrometry (LC–MS); details: 2 µM
# [18] = The drug is tested on Anaerotruncus colihominis strain: DSM17241 for biotransformation. The drug concentrations were measured before and after a 12-h incubation by liquid-chromatography-coupled mass spectrometry (LC–MS); details: 2 µM
# [19] = The drug is tested on Clostridium sp. strain: fecal isolate for biotransformation. The drug concentrations were measured before and after a 12-h incubation by liquid-chromatography-coupled mass spectrometry (LC–MS); details: 2 µM
# [20] = The drug is tested on Ruminococcus gnavus strain: ATCC29149 for biotransformation. The drug concentrations were measured before and after a 12-h incubation by liquid-chromatography-coupled mass spectrometry (LC–MS); details: mediterraneibacter gnavus, 2 µM
compound,measurement,setting,value
CN1CCc2cccc3c2[C@H]1Cc1ccc(O)c(O)c1-3 [APOMORPHINE],Bacterial Biotransformation,[1],Compound NOT metabolized
same,Bacterial Biotransformation,[2],Compound NOT metabolized
same,Bacterial Biotransformation,[3],Compound NOT metabolized
same,Bacterial Biotransformation,[4],Compound NOT metabolized
same,Bacterial Biotransformation,[5],Compound NOT metabolized
same,Bacterial Biotransformation,[6],Compound NOT metabolized
same,Bacterial Biotransformation,[7],Compound NOT metabolized
same,Bacterial Biotransformation,[8],Compound NOT metabolized
same,Bacterial Biotransformation,[9],Compound NOT metabolized
same,Bacterial Biotransformation,[10],Compound NOT metabolized
same,Bacterial Biotransformation,[11],Compound NOT metabolized
same,Bacterial Biotransformation,[12],Compound NOT metabolized
same,Bacterial Biotransformation,[13],Compound NOT metabolized
same,Bacterial Biotransformation,[14],Compound NOT metabolized
same,Bacterial Biotransformation,[15],Compound NOT metabolized
same,Bacterial Biotransformation,[16],Compound NOT metabolized
same,Bacterial Biotransformation,[17],Compound NOT metabolized
same,Bacterial Biotransformation,[18],Compound NOT metabolized
same,Bacterial Biotransformation,[19],Compound NOT metabolized
same,Bacterial Biotransformation,[20],Compound NOT metabolized
CNC(=C[N+](=O)[O-])NCCSCc1csc(CN(C)C)n1 [NIZATIDINE],Bacterial Biotransformation,[1],Compound NOT metabolized
same,Bacterial Biotransformation,[2],Compound NOT metabolized
same,Bacterial Biotransformation,[3],Compound metabolized
same,Bacterial Biotransformation,[4],Compound metabolized
same,Bacterial Biotransformation,[5],Compound metabolized
same,Bacterial Biotransformation,[6],Compound NOT metabolized
same,Bacterial Biotransformation,[7],Compound metabolized
same,Bacterial Biotransformation,[8],Compound metabolized
same,Bacterial Biotransformation,[9],Compound metabolized
same,Bacterial Biotransformation,[10],Compound metabolized
same,Bacterial Biotransformation,[11],Compound metabolized
same,Bacterial Biotransformation,[12],Compound NOT metabolized
same,Bacterial Biotransformation,[13],Compound metabolized
same,Bacterial Biotransformation,[14],Compound metabolized
same,Bacterial Biotransformation,[15],Compound NOT metabolized
same,Bacterial Biotransformation,[16],Compound metabolized
same,Bacterial Biotransformation,[17],Compound metabolized
same,Bacterial Biotransformation,[18],Compound metabolized
same,Bacterial Biotransformation,[19],Compound metabolized
same,Bacterial Biotransformation,[20],Compound metabolized
CCOc1ccc2nc(S(N)(=O)=O)sc2c1 [ETHOXZOLAMIDE],Bacterial Biotransformation,[1],Compound metabolized
same,Bacterial Biotransformation,[2],Compound metabolized
same,Bacterial Biotransformation,[3],Compound NOT metabolized
same,Bacterial Biotransformation,[4],Compound metabolized
same,Bacterial Biotransformation,[5],Compound metabolized
same,Bacterial Biotransformation,[6],Compound metabolized
same,Bacterial Biotransformation,[7],Compound metabolized
same,Bacterial Biotransformation,[8],Compound metabolized
same,Bacterial Biotransformation,[9],Compound metabolized
same,Bacterial Biotransformation,[10],Compound metabolized
same,Bacterial Biotransformation,[11],Compound metabolized
same,Bacterial Biotransformation,[12],Compound metabolized
same,Bacterial Biotransformation,[13],Compound metabolized
same,Bacterial Biotransformation,[14],Compound metabolized
same,Bacterial Biotransformation,[15],Compound metabolized
same,Bacterial Biotransformation,[16],Compound metabolized
same,Bacterial Biotransformation,[17],Compound metabolized
same,Bacterial Biotransformation,[18],Compound metabolized
same,Bacterial Biotransformation,[19],Compound metabolized
same,Bacterial Biotransformation,[20],Compound metabolized
CC[C@@H](CO)NC(=O)[C@@H]1C=C2c3cccc4c3c(cn4C)C[C@H]2N(C)C1.O=C(O)/C=C\C(=O)O [METHYSERGIDE MALEATE],Bacterial Biotransformation,[1],Compound metabolized
same,Bacterial Biotransformation,[2],Compound metabolized
same,Bacterial Biotransformation,[3],Compound metabolized
same,Bacterial Biotransformation,[4],Compound metabolized
same,Bacterial Biotransformation,[5],Compound metabolized
same,Bacterial Biotransformation,[6],Compound metabolized
same,Bacterial Biotransformation,[7],Compound metabolized
same,Bacterial Biotransformation,[8],Compound metabolized
same,Bacterial Biotransformation,[9],Compound metabolized
same,Bacterial Biotransformation,[10],Compound metabolized
same,Bacterial Biotransformation,[11],Compound metabolized
same,Bacterial Biotransformation,[12],Compound metabolized
same,Bacterial Biotransformation,[13],Compound metabolized
same,Bacterial Biotransformation,[14],Compound metabolized
same,Bacterial Biotransformation,[15],Compound metabolized
same,Bacterial Biotransformation,[16],Compound metabolized
same,Bacterial Biotransformation,[17],Compound metabolized
same,Bacterial Biotransformation,[18],Compound metabolized
same,Bacterial Biotransformation,[19],Compound metabolized
same,Bacterial Biotransformation,[20],Compound metabolized
COc1ccccc1OCCNCC(O)COc1cccc2[nH]c3ccccc3c12 (stereo not given) [CARVEDILOL],Bacterial Biotransformation,[1],Compound NOT metabolized
same,Bacterial Biotransformation,[2],Compound metabolized
same,Bacterial Biotransformation,[3],Compound metabolized
same,Bacterial Biotransformation,[4],Compound NOT metabolized
same,Bacterial Biotransformation,[5],Compound NOT metabolized
same,Bacterial Biotransformation,[6],Compound NOT metabolized
same,Bacterial Biotransformation,[7],Compound metabolized
same,Bacterial Biotransformation,[8],Compound NOT metabolized
same,Bacterial Biotransformation,[9],Compound NOT metabolized
same,Bacterial Biotransformation,[10],Compound NOT metabolized
same,Bacterial Biotransformation,[11],Compound NOT metabolized
same,Bacterial Biotransformation,[12],Compound metabolized
same,Bacterial Biotransformation,[13],Compound metabolized
same,Bacterial Biotransformation,[14],Compound metabolized
same,Bacterial Biotransformation,[15],Compound metabolized
same,Bacterial Biotransformation,[16],Compound NOT metabolized
same,Bacterial Biotransformation,[17],Compound NOT metabolized
same,Bacterial Biotransformation,[18],Compound metabolized
same,Bacterial Biotransformation,[19],Compound NOT metabolized
same,Bacterial Biotransformation,[20],Compound NOT metabolized
CNC(=C[N+](=O)[O-])NCCSCc1ccc(CN(C)C)o1 [RANITIDINE],Bacterial Biotransformation,[1],Compound NOT metabolized
same,Bacterial Biotransformation,[2],Compound NOT metabolized
same,Bacterial Biotransformation,[3],Compound metabolized
same,Bacterial Biotransformation,[4],Compound metabolized
same,Bacterial Biotransformation,[5],Compound metabolized
same,Bacterial Biotransformation,[6],Compound metabolized
same,Bacterial Biotransformation,[7],Compound metabolized
same,Bacterial Biotransformation,[8],Compound NOT metabolized
same,Bacterial Biotransformation,[9],Compound metabolized
same,Bacterial Biotransformation,[10],Compound metabolized
same,Bacterial Biotransformation,[11],Compound metabolized
same,Bacterial Biotransformation,[12],Compound NOT metabolized
same,Bacterial Biotransformation,[13],Compound metabolized
same,Bacterial Biotransformation,[14],Compound NOT metabolized
same,Bacterial Biotransformation,[15],Compound NOT metabolized
same,Bacterial Biotransformation,[16],Compound metabolized
same,Bacterial Biotransformation,[17],Compound metabolized
same,Bacterial Biotransformation,[18],Compound metabolized
same,Bacterial Biotransformation,[19],Compound metabolized
same,Bacterial Biotransformation,[20],Compound metabolized

# Source: ChEMBL document CHEMBL5303573, “Mapping human microbiome drug metabolism by gut bacteria and their genes” (Nature, 2019)
